We go through 32 compounds from US20100292279A1, “Bis-(Sulfonylamino) Derivatives in Therapy” (ASTRAZENECA AB, priority 2009, published 2010).

The test deals with T1, human mPGES-1 (Homo sapiens, UniProt O14684).
T1 construct: host or cells: microsomes
T1 sequence (O14684 1-152): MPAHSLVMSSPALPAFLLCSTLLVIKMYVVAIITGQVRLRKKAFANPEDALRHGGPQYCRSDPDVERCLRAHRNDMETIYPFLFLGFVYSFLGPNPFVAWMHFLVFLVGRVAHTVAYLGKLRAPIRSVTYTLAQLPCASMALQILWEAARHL
Kind of test: Microsomal prostaglandin E synthase biochemical assay. To be noted: microsome preparation containing human mPGES-1; substrate PGH2 10.8 μM, GSH 2.5 mM, pH 6.8; PGE2 by HTRF; average of at least n=2. As to the method:
Compounds were tested as inhibitors of microsomal prostaglandin E synthase activity in microsomal prostaglandin E synthase assays and whole cell assays. These assays measure prostaglandin E2 (PGE2) synthesis which is taken as a measure of prostaglandin E synthase activity. Microsomal prostaglandin E synthase biochemical assays used microsomal prostaglandin E synthase-1 in microsomal preparations. The source of the microsomes can be for example interleukin-1β-stimulated human A549 cells (which express human mPGES-1) or Sf9 cells transfected with plasmids encoding human mPGES-1 cDNA.
A solution of test compound was added to a diluted microsome preparation containing is human mPGES-1 and pre-incubated for 15 minutes in potassium phosphate buffer pH 6.8 with cofactor glutathione (GSH). Corresponding solutions without test compound were used as positive controls, and corresponding solutions without test compound and without microsomes were used as negative controls. The enzymatic reaction was then started by addition of the substrate PGH2 in an organic solution (dry acetonitrile).
The reaction was stopped after one minute by adding an acidic solution (pH 1.9) of ferric chloride and citrate (final concentrations 7 mM and 47 mM respectively), by which the PGH2 was sequestered (the PGH2 is reduced to mainly 12-hydroxy heptadecatrineoic acid (12-HHT) which is not detected by the subsequent PGE2 detection step). The resulting solution was then pH neutralized by addition of potassium phosphate buffer, prior to diluting an aliquot of the resulting solution in a weak potassium phosphate buffer (50 mM, pH 6.8) containing 0.2% BSA (w/v). […] The PGE2 formed was quantified by use of a commercial HTRF based kit (catalogue #62PG2PEC or #62P2APEC from Cisbio International). 100% activity was defined as the PGE2 production in positive controls subtracted by the PGE2 production in the negative controls. IC50 values were then determined using standard procedures.

Molecules are shown by their SMILES. pIC50: −log10 of the molar value.

With `NS(=O)(=O)c1ccccc1S(=O)(=O)NC(=O)c1ccc(OCc2ccccc2)c(OCC2CC2)c1` [Example 1, 4-(Benzyloxy)-3-(cyclopropylmethoxy)-N-(2-sulfamoylphenylsulfonyl)benzamide], the pIC50 – broadly, −log10 of the IC50, conventionally taken in molar units – was 6.55.

Turning to `COc1cc(C(=O)NS(=O)(=O)c2ccccc2S(N)(=O)=O)ccc1COc1ccc(C)cc1` [Example 2, 3-Methoxy-N-(2-sulfamoylphenylsulfonyl)-4-(p-tolyloxymethyl)benzamide], the pIC50 was 7.51.

Compound `NS(=O)(=O)c1ccccc1S(=O)(=O)NC(=O)c1ccc(C#Cc2ccccc2)c(OCC(F)F)c1` [Example 3, 3-(2,2-Difluoroethoxy)-4-(phenylethynyl)-N-(2-sulfamoylphenylsulfonyl)benzamide] had a pIC50 of 8.09.

In turn, `Cc1ccc(C#Cc2ccc(C(=O)NS(=O)(=O)c3ccccc3S(N)(=O)=O)cc2OCC(F)F)cc1` [Example 4, 3-(2,2-Difluoroethoxy)-N-(2-sulfamoylphenylsulfonyl)-4-(p-tolylethynyl)benzamide] showed a negative logarithm of the IC50 (pIC50) of 8.30.

`NS(=O)(=O)c1ccccc1S(=O)(=O)NC(=O)c1ccc(C#CC2CCCC2)c(OCC(F)F)c1` [Example 5, 4-(Cyclopentylethynyl)-3-(2,2-difluoroethoxy)-N-(2-sulfamoylphenylsulfonyl)benzamide] showed a pIC50 of 7.85.

`CC(C)(C)C#Cc1ccc(C(=O)NS(=O)(=O)c2ccccc2S(N)(=O)=O)cc1OCC(F)F` [Example 6, 3-(2,2-Difluoroethoxy)-4-(3,3-dimethylbut-1-ynyl)-N-(2-sulfamoylphenylsulfonyl)benzamide] showed a pIC50 of 7.60.

The compound `NS(=O)(=O)c1ccccc1S(=O)(=O)NC(=O)c1ccc(-c2cc3ccccc3o2)c(OCC(F)F)c1` [Example 7, 4-(Benzofuran-2-yl)-3-(2,2-difluoroethoxy)-N-(2-sulfamoylphenylsulfonyl)benzamide] gave a pIC50 of 8.35.

For `Cc1ccccc1C#Cc1ccc(C(=O)NS(=O)(=O)c2ccccc2S(N)(=O)=O)cc1` [Example 8, N-(2-Sulfamoylphenylsulfonyl)-4-(o-tolylethynyl)benzamide], the pIC50 was 8.19.

`NS(=O)(=O)c1ccccc1S(=O)(=O)NC(=O)c1ccc(C#Cc2ccc(Cl)cc2)cc1` [Example 10, 4-((4-Chlorophenyl)ethynyl)-N-(2-sulfamoylphenylsulfonyl)benzamide] showed a pIC50 of 8.43.

For `NS(=O)(=O)c1ccccc1S(=O)(=O)NC(=O)c1ccc(C#Cc2ccc(F)cc2)cc1` [Example 11, 4-((4-Fluorophenyl)ethynyl)-N-(2-sulfamoylphenylsulfonyl)benzamide], the pIC50 was 8.00.

Compound `NS(=O)(=O)c1ccccc1S(=O)(=O)NC(=O)c1ccc(C#Cc2cccc(Cl)c2)cc1` [Example 12, 4-((3-Chlorophenyl)ethynyl)-N-(2-sulfamoylphenylsulfonyl)benzamide] had a pIC50 of 8.36.

On to `NS(=O)(=O)c1ccccc1S(=O)(=O)NC(=O)c1ccc(C#Cc2cccc(F)c2)cc1` [Example 13, 4-((3-Fluorophenyl)ethynyl)-N-(2-sulfamoylphenylsulfonyl)benzamide], for which the pIC50 is 8.24.

For the compound `COc1cc(C(=O)NS(=O)(=O)c2ccccc2S(N)(=O)=O)ccc1C#Cc1ccccc1C` [Example 14, 3-Methoxy-N-(2-sulfamoylphenylsulfonyl)-4-(o-tolylethynyl)benzamide], the pIC50 is 7.96.

`COc1cc(C(=O)NS(=O)(=O)c2ccccc2S(N)(=O)=O)ccc1C#Cc1ccc(Cl)cc1` [Example 15, 4-((4-Chlorophenyl)ethynyl)-3-methoxy-N-(2-sulfamoylphenylsulfonyl)benzamide]: the pIC50 was 8.08.

With `COc1cc(C(=O)NS(=O)(=O)c2ccccc2S(N)(=O)=O)ccc1C#Cc1ccc(F)cc1` [Example 16, 4-((4-Fluorophenyl)ethynyl)-3-methoxy-N-(2-sulfamoylphenylsulfonyl)benzamide], the pIC50 is 7.80.

The compound `COc1cc(C(=O)NS(=O)(=O)c2ccccc2S(N)(=O)=O)ccc1C#Cc1ccc(C)cc1` [Example 17, 3-Methoxy-N-(2-sulfamoylphenylsulfonyl)-4-(p-tolylethynyl)benzamide] gave a pIC50 of 8.20.

`COc1cc(C(=O)NS(=O)(=O)c2ccccc2S(N)(=O)=O)ccc1C#Cc1cccc(C)c1` [Example 18, 3-Methoxy-N-(2-sulfamoylphenylsulfonyl)-4-(m-tolylethynyl)benzamide] had a negative-log IC50 (pIC50) of 7.92.

`COc1cc(C(=O)NS(=O)(=O)c2ccccc2S(N)(=O)=O)ccc1C#Cc1cccc(Cl)c1` [Example 19, 4-((3-Chlorophenyl)ethynyl)-3-methoxy-N-(2-sulfamoylphenylsulfonyl)benzamide] gave a pIC50 of 8.14.

`COc1cc(C(=O)NS(=O)(=O)c2ccccc2S(N)(=O)=O)ccc1C#Cc1cccc(F)c1` [Example 20, 4-((3-Fluorophenyl)ethynyl)-3-methoxy-N-(2-sulfamoylphenylsulfonyl)benzamide] showed a pIC50 of 7.92.

Regarding `NS(=O)(=O)c1ccccc1S(=O)(=O)NC(=O)c1ccc(-c2cc3ccccc3o2)c(OCC2CC2)c1` [Example 21, 4-(Benzofuran-2-yl)-3-(cyclopropylmethoxy)-N-(2-sulfamoylphenylsulfonyl)benzamide], the negative logarithm of the IC50 (pIC50) is 8.30.

`CC(C)(C)C#Cc1ccc(C(=O)NS(=O)(=O)c2ccccc2S(N)(=O)=O)cc1OCC1CC1` [Example 22, 3-(Cyclopropylmethoxy)-4-(3,3-dimethylbut-1-ynyl)-N-(2-sulfamoylphenylsulfonyl)benzamide] showed a pIC50 of 7.89.

`CC(C)C#Cc1ccc(C(=O)NS(=O)(=O)c2ccccc2S(N)(=O)=O)cc1OCC1CC1` [Example 23, 3-(Cyclopropylmethoxy)-4-(3-methylbut-1-ynyl)-N-(2-sulfamoylphenylsulfonyl)benzamide] showed a pIC50 of 7.47.

In the case of `NS(=O)(=O)c1ccccc1S(=O)(=O)NC(=O)c1ccc(CN2CC(F)(F)C(F)(F)C2)cc1` [Example 24, N-(2-Sulfamoylphenylsulfonyl)-4-((3,3,4,4-tetrafluoropyrrolidin-1-yl)methyl)benzamide], the pIC50 was 5.54.

`CC(C)C#Cc1ccc(C(=O)NS(=O)(=O)c2ccccc2S(N)(=O)=O)cc1OCCC(C)(C)O` [Example 25, 3-(3-Hydroxy-3-methylbutoxy)-4-(3-methylbut-1-ynyl)-N-(2-sulfamoylphenylsulfonyl)benzamide] had a pIC50 of 6.89.

`CC(C)C#Cc1ccc(C(=O)NS(=O)(=O)c2ccccc2S(N)(=O)=O)cc1OC(C)C` [Example 26, 3-Isopropoxy-4-(3-methylbut-1-ynyl)-N-(2-sulfamoylphenylsulfonyl)benzamide] had a pIC50 of 7.07.

`COC(C)(C)CCOc1cc(C(=O)NS(=O)(=O)c2ccccc2S(N)(=O)=O)ccc1C#CC1CC1` [Example 27, 4-(Cyclopropylethynyl)-3-(3-methoxy-3-methylbutoxy)-N-(2-sulfamoylphenylsulfonyl)benzamide] had a pIC50 of 7.07.

For `CC(C)C#Cc1ccc(C(=O)NS(=O)(=O)c2ccccc2S(N)(=O)=O)cc1OCC(C)C` [Example 28, 3-Isobutoxy-4-(3-methylbut-1-ynyl)-N-(2-sulfamoylphenylsulfonyl)benzamide], the pIC50 is 7.70.

The compound `COc1cc(C(=O)NS(=O)(=O)c2ccccc2S(N)(=O)=O)ccc1OCc1ccc(C)cc1` [Example 29, 3-Methoxy-4-(4-methylbenzyloxy)-N-(2-sulfamoylphenylsulfonyl)benzamide] gave a pIC50 of 6.41.

With `NS(=O)(=O)c1ccccc1S(=O)(=O)NC(=O)c1ccc(OCc2ccccc2)c(OCCC(F)(F)F)c1` [Example 30, 4-(Benzyloxy)-N-(2-sulfamoylphenylsulfonyl)-3-(3,3,3-trifluoropropoxy)benzamide], the pIC50 was 6.89.

In the case of `NS(=O)(=O)c1ccccc1S(=O)(=O)NC(=O)c1ccc(C#CC(O)(C2CC2)C2CC2)cc1` [Example 31, 4-(3,3-Dicyclopropyl-3-hydroxyprop-1-ynyl)-N-(2-sulfamoylphenylsulfonyl)benzamide], the pIC50 was 6.66.

`CCCC(C)C#Cc1ccc(C(=O)NS(=O)(=O)c2ccccc2S(N)(=O)=O)cc1CO` (centres unmarked) [Example 32, 3-(Hydroxymethyl)-4-(3-methylhex-1-ynyl)-N-(2-sulfamoylphenylsulfonyl)benzamide] gave a pIC50 of 7.22.

For the compound `CC(C)Oc1cc(C(=O)NS(=O)(=O)c2ccccc2S(N)(=O)=O)ccc1C#Cc1ccc(C(F)(F)F)cc1` [Example 33, 3-Isopropoxy-N-(2-sulfamoylphenylsulfonyl)-4-((4-(trifluoromethyl)phenyl)ethynyl)benzamide], the pIC50 is 7.27.
